Numbered stars: 1 amine (or outer) side, 2 acyl side, 3 side chain; on linkers, the order of the positions; unused ones are H or OH. Square brackets hold non-standard residues; d marks the D form. Peptide text beside a SMILES is read from it. X1 = C[C@@H](O)[C@H](N[*:1])C(=O)NC(=O)[*:2]
Tests used:
Type in all cases: cell-based
[1] = biological target: Integrin alpha-V/beta-5 (Homo sapiens, UniProt P06756+P18084); experiment: Antagonist activity at integrin alphaVbeta5 (unknown origin) expressed in HT-29 cells assessed as reduction in cell adhesion to vitronectin after 2 hrs by MTT assay
Sequence of Integrin alpha-V/beta-5 (P06756 31-889 limits assumed): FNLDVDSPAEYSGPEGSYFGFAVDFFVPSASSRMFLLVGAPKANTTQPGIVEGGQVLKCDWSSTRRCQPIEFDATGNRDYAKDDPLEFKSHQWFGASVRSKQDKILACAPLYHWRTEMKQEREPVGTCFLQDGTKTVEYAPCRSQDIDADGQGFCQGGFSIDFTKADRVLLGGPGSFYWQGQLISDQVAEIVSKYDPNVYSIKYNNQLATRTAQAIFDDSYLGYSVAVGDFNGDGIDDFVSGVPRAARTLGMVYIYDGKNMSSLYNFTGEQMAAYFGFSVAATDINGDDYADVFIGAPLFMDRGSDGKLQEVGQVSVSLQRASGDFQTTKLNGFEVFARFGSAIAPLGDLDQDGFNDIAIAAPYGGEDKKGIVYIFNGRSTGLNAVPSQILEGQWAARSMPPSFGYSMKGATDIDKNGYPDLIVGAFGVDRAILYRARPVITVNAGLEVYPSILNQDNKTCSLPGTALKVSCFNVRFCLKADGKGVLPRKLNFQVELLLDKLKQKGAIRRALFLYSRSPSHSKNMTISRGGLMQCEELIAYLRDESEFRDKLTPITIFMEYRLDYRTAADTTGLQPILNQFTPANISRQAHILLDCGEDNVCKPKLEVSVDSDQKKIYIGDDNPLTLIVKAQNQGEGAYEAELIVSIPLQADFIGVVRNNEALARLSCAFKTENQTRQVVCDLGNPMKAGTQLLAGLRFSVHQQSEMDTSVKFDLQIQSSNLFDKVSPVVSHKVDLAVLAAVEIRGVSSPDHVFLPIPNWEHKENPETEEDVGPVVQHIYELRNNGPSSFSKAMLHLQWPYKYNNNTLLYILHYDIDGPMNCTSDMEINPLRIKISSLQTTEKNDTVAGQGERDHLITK
Sequence of Integrin alpha-V/beta-5 (P06756 891-1048 limits assumed): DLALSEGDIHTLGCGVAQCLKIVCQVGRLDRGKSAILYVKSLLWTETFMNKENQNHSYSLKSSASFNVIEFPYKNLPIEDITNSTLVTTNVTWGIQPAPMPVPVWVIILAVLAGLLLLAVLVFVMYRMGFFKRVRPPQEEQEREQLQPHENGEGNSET
Sequence of Integrin alpha-V/beta-5 (P18084 24-799 limits assumed): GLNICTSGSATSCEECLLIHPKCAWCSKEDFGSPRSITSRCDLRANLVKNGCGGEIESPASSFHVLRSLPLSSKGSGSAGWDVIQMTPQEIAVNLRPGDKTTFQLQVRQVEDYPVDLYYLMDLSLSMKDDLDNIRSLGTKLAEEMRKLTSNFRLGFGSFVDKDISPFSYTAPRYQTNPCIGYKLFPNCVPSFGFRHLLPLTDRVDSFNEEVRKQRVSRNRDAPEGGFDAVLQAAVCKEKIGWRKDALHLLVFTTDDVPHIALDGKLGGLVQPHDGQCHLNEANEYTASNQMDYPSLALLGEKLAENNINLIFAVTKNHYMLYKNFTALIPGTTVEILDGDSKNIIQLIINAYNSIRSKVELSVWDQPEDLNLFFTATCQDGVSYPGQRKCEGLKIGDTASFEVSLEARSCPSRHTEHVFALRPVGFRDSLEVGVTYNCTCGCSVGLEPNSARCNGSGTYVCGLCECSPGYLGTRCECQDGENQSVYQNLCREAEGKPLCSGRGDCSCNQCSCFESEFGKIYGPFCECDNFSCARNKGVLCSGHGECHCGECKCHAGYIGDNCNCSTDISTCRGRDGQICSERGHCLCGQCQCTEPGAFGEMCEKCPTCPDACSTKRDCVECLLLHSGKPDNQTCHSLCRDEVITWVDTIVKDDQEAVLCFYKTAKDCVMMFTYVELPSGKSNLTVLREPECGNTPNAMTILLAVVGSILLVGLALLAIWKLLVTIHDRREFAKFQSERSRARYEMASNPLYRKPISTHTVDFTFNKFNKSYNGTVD

[2] = biological target: Integrin alpha-V/beta-3/alpha-V/beta-5 (Homo sapiens, UniProt P05106+P06756+P18084); experiment: Antagonist activity at integrin alphaVbeta3alphaVbeta5 (unknown origin) expressed in SKOV3 cells assessed as reduction in cell adhesion to fibrinogen after 2 hrs by MTT assay
Sequence of Integrin alpha-V/beta-3/alpha-V/beta-5 (P05106 27-788 limits assumed): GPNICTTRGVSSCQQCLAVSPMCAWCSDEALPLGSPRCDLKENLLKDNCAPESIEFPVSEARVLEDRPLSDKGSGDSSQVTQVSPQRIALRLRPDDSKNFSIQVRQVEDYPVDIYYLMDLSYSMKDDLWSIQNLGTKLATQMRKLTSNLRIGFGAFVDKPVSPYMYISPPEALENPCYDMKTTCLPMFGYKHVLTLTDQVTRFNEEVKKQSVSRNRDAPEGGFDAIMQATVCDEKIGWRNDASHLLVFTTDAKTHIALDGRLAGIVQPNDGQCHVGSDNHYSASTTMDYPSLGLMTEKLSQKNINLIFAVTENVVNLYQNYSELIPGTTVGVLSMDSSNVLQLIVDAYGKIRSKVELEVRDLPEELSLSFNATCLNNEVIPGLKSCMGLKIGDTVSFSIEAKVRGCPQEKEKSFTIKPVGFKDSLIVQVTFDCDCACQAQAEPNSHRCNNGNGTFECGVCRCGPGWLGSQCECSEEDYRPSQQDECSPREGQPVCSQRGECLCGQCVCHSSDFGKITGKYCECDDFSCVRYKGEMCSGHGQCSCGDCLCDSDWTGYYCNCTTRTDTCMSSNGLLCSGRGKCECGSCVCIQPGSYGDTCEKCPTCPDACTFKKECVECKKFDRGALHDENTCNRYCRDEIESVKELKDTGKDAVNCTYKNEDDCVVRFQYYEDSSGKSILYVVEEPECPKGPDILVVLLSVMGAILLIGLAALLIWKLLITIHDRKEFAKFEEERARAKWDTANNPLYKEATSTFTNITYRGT
Sequence of Integrin alpha-V/beta-3/alpha-V/beta-5 (P06756 31-889 limits assumed): as the sequence (P06756 31-889 limits assumed) above
Sequence of Integrin alpha-V/beta-3/alpha-V/beta-5 (P06756 891-1048 limits assumed): as the sequence (P06756 891-1048 limits assumed) above
Sequence of Integrin alpha-V/beta-3/alpha-V/beta-5 (P18084 24-799 limits assumed): as the sequence (P18084 24-799 limits assumed) above

[3] = biological target: Integrin alpha-V/beta-3 (Homo sapiens, UniProt P05106+P06756); experiment: Antagonist activity at integrin alphaVbeta3 (unknown origin) expressed in HEK293 cells assessed as reduction in cell adhesion to fibrinogen after 2 hrs by MTT assay
Sequence of Integrin alpha-V/beta-3 (P05106 27-788 limits assumed): as the sequence (P05106 27-788 limits assumed) above
Sequence of Integrin alpha-V/beta-3 (P06756 31-889 limits assumed): as the sequence (P06756 31-889 limits assumed) above
Sequence of Integrin alpha-V/beta-3 (P06756 891-1048 limits assumed): as the sequence (P06756 891-1048 limits assumed) above

[4] = species: Homo sapiens; experiment: Selectivity ratio of IC50 for integrin alphaVbeta5 (unknown origin) expressed in HT-29 cells to IC50 for integrin alphaVbeta3alphaVbeta5 (unknown origin) expressed in SKOV3 cells
[5] = species: Homo sapiens; experiment: Selectivity ratio of IC50 for integrin alphaVbeta5 (unknown origin) expressed in HT-29 cells to IC50 for integrin alphaVbeta3 (unknown origin) expressed in HEK293 cells

Compound | IC50 [1] [µM] | IC50 [2] [µM] | IC50 [3] [µM] | Ratio IC50 [4] | Ratio IC50 [5]
CC(C)C[C@@H]1NC(=O)[C@H](CC(=O)O)NC(=O)CNC(=O)[C@H](CCCNC(=N)N)NC(=O)[C@H](CC(=O)O)NC(=O)CNC(=O)[C@H](CCCNC(=N)N)NC(=O)CNC(=O)CNC(=O)CNC(=O)CNC(=O)[C@H]([C@@H](C)O)NC(=O)[C@H](CCC(=O)O)NC(=O)[C@@H]2CCCN2C1=O (cyclo(RGDLPETGGGGRGD)) | 26 | 26 | 48.8 |  | 
CC(C)C[C@@H]1NC(=O)[C@H](CC(=O)O)NC(=O)CNC(=O)[C@H](CCCNC(=N)N)NC(=O)[C@H](CC(=O)O)NC(=O)CNC(=O)[C@H](CCCNC(=N)N)NC(=O)[C@H](CC(=O)O)NC(=O)CNC(=O)[C@H](CCCNC(=N)N)NC(=O)CNC(=O)[C@H]([C@@H](C)O)NC(=O)[C@H](CCC(=O)O)NC(=O)[C@@H]2CCCN2C1=O (cyclo(RGDLPETGRGDRGD)) | 380 | 136 | 257 |  | 
CC(C)C[C@@H]1NC(=O)[C@H](CC(=O)O)NC(=O)CNC(=O)[C@H](CCCNC(=N)N)NC(=O)CNC(=O)CNC(=O)CNC(=O)CNC(=O)CNC(=O)CNC(=O)CNC(=O)NC(=O)[C@H]([C@@H](C)O)NC(=O)[C@H](CCC(=O)O)NC(=O)[C@@H]2CCCN2C1=O (cyclo(RGDLPE[X1]GGGGGGG)) | 522 | 19 | 7.2 |  | 
H-GGGGGGGRGDLPETGGS-OH | 2950 | 102 | 171 |  | 
H-GGGGRGDRGDLPETGGS-OH | 1730 | 4 | 33 | > 400 | > 50
H-GRGDRGDRGDLPETGGS-OH | 25 | 74 | 152 |  | 
H-RGDRGD-OH | 546 | 753 | 619 |  | 

— ChEMBL document CHEMBL4014304, “New potent and selective αvβ3 integrin ligands: Macrocyclic peptides containing RGD motif synthesized by sortase A-mediated ligation” (Bioorg Med Chem Lett, 2017)
